From patent US12285395B2, “Pharmaceutical composition for preventing or treating allodynia caused by anticancer agents” (UNIVERSITY-INDUSTRY COOPERATION GROUP OF KYUNG HEE …, priority 2018, dated 2025) come the findings set out here.

Test [1] relates to mechanical allodynia induced by paclitaxel. Kind of test: Mechanical allodynia (von Frey filament 0.4 g), paclitaxel animal model, oral cinnamic acid. Particulars: mice. In kind it is in vivo, c57/bl6 mice. As to the method: Six-week-old mice (c57/bl6 mice) were prepared as an experimental animal. Paclitaxel (Sigma-Aldrich) dissolved at a concentration of 6 mg/mL in a 1:1 solution of Cremophor EL and ethanol was diluted to a concentration of 2 mg/mL and intraperitoneally injected 4 times at 2 mg/kg. The dosage was administered every other day on days 0, 2, 4, and 6. Significant pain was observed from about 10 days after the first dosage. The number of reactions was recorded by stimulating the soles of both hind paws of the experimental animal 10 times using a von Frey filament at a pressure of 0.4 g. The behaviors that are criteria for recording are an avoidance reaction and a behavior of licking the soles of the paw. The recording for both paws was averaged and confirmed. As a pre-behavioral experiment, 50 mg/kg and 100 mg/kg of cinnamic acid was orally administered to experimental animals induced with allodynia, and the effects after 1 h and 2 h were confirmed.

Test [2] deals with oxaliplatin-induced cold allodynia. In words: Acetone drop test, oxaliplatin-induced cold allodynia, intraperitoneal administration. In kind it is in vivo, Sprague Dawley (SD) rats. As to the method:
Cinnamic acid (trans-cinnamic acid, Wako Pure Chemical Industries, Osaka, Japan) and cinnamaldehyde (Wako Pure Chemical Industries, Osaka, Japan) were dissolved in 10% dimethyl sulfoxide (DMSO, Sigma) (adjusted to pH 7 with 2 M HCl and 5 M NaOH) and 1% Tween 20 (Sigma), respectively. The final volume of 10% DMSO and 1% Tween 20 used in the experiment was […] rat. Cinnamic acid and cinnamaldehyde (10 mg/kg, 20 mg/kg, and 40 mg/kg) (i.p.) at different concentrations were administered to rats with cold allodynia and mechanical allodynia.
(§1) Seven-week-old male Sprague Dawley (SD) rats (180 g to 210 g, 95 rats total, Young Bio, Gyeonggi, Korea) were fed freely with feed and water in cages. The room temperature was maintained at 23±2° C. and a 12 h/12 h contrast cycle was maintained. All procedures described in the present disclosure were approved by the Animal Care and Use Committee of Kyunghee University (KHUASP[SE]-18-153) and followed the guidelines of the International Pain Research Association.
In order to measure cold allodynia and mechanical allodynia, according to a previous method (Flatters, S J; Bennett, G J Ethosuximide reverses paclitaxel- and vincristine-induced painful peripheral neuropathy. Pain 2004, 109, 150-161), an acetone drop test and a von Frey filament test (up-down method, Linton Instrumentation, Norfolk, UK) were performed, respectively. The rats were trained for one week before the start of the experiment to adapt to the touch and the experimental procedure. The rats were stabilized for 30 min before testing in a clear plastic box (20 cm×20 cm×14 cm) with a wire mesh bottom, while not recognizing the injection of oxaliplatin and other drugs.
Acetone was dripped 5 times on the right hind paw, and the total frequency of licking and shaking of the soles was measured as an average per time.
For the mechanical allodynia test, paw withdrawal thresholds were measured in the right hind paw using a von Frey filament. Dixon's up-down method and Chaplan's calculation method were used, and a withdrawal threshold of 15 g was measured as a cut-off. In order to confirm the effects of cinnamaldehyde and cinnamic acid at different concentrations over time, the behavioral experiment was performed before injection of cinnamic acid and cinnamaldehyde (time point of 0 min) and at time points of 30 min, 60 min, and 120 min after injection.
Oxaliplatin (Wako Pure Chemical Industries, Osaka, Japan) was dissolved in a 5% glucose solution at a concentration of 2 mg/mL and injected intraperitoneally at a dose of 6 mg/kg. The same volume of 5% glucose solution (i.p.) was administered to a control.
All data are expressed as mean±S.E.M. (Standard error of the mean). The data in FIG. 4 was analyzed by a paired t-test (FIGS. 4A and 4B) or an unpaired t-test (FIG. 4C). The data in FIGS. 5 and 6 were expressed as mean±S.E.M. and analyzed by a Bonferroni post-test after one-way ANOVA to evaluate a statistical difference between groups. The data in FIG. 7A were analyzed using Dunnett's multiple comparisons test after two-way ANOVA. The 95% reliability was considered to be statistically significant.

For the next test, the system named is spinal WDR neurons. In words: In vivo extracellular recording of spinal WDR neurons after oxaliplatin. Set-up: species or system Sprague Dawley (SD) rats. Particulars: 20 mg/kg i.p., day 4 after oxaliplatin, vs 10% DMSO control (FIGS. 7A to 7D). The method, then:
as §1
Oxaliplatin (Wako Pure Chemical Industries, Osaka, Japan) was dissolved in a 5% glucose solution at a concentration of 2 mg/mL and injected intraperitoneally at a dose of 6 mg/kg. The same volume of 5% glucose solution (i.p.) was administered to a control. […]
All data are expressed as mean±S.E.M. (Standard error of the mean). The data in FIG. 4 was analyzed by a paired t-test (FIGS. 4A and 4B) or an unpaired t-test (FIG. 4C). The data in FIGS. 5 and 6 were expressed as mean±S.E.M. and analyzed by a Bonferroni post-test after one-way ANOVA to evaluate a statistical difference between groups. The data in FIG. 7A were analyzed using Dunnett's multiple comparisons test after two-way ANOVA. […]

`O=C(O)/C=C/c1ccccc1` [cinnamic acid]: the “pain relief effect on mechanical allodynia” value in test [1] (50 mg/kg oral (FIG. 2)) is on record as “no significant pain relief effect”. Moreover, the “pain relief effect on mechanical allodynia compared to control” value in test [1] (100 mg/kg oral (FIG. 2)) was “no significant pain relief effect”. Further, the “time point at which the effect on cold allodynia disappeared” value in test [2] (10 mg/kg i.p. (FIG. 5A)) amounted to 120 min. In test [2] (20 mg/kg i.p. vs 40 mg/kg i.p. (control vs. 20 mg/kg p<0.001, 40 mg/kg p<0.05) (FIG. 5A)), the “pain relief effect on cold allodynia of 20 mg/kg relative to 40 mg/kg” value is recorded as “slightly stronger”. Further, the “effect on oxaliplatin-induced cold allodynia” value in test [2] (all three doses 10, 20 and 40 mg/kg i.p., 30, 60, 120 min after injection (FIG. 5A, FIG. 6)) is “had effects on cold allodynia”. The “optimal dose for alleviating cold allodynia and mechanical allodynia caused by oxaliplatin” value in test [2] (intraperitoneal administration, doses tested 10, 20, 40 mg/kg) was 20 mg/kg. Also, the “increased activity of WDR neurons after oxaliplatin injection (brush, press, pinch, acetone drop stimulations)” value in the test with spinal WDR neurons is listed as “significantly decreased”.
